pEC50: −log10 of the molar value.
Each compound was assayed against Ras-related protein Rab-2A (Canis lupus familiaris, UniProt P61105) (assay: potency of blocking fluorescent GTP on Rab2A – biochemical, GST-Rab2 beads, Bodipy-FL-GTP, flow cytometry, multiplex, dose response (AID 1337)).
Ras-related protein Rab-2A, sequence (P61105 whole entry): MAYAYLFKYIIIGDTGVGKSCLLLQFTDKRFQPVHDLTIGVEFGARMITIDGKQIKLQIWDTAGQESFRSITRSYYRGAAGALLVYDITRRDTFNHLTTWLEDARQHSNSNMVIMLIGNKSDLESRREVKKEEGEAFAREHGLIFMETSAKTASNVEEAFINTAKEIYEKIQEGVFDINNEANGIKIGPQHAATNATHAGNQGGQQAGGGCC

Row | SMILES | pEC50
1 | O=C(O)c1ccccc1Sc1ncnc2sc3c(c12)CCC3 | 5.56
2 | Cc1cc(C)c(C)c(C(=O)c2ccccc2C(=O)O)c1C [2-(2,3,5,6-tetramethylbenzoyl)benzoic acid] | 5.20
3 | Cc1nn(Cc2ccccc2)c(Cl)c1C(=O)O [1-benzyl-5-chloro-3-methyl-pyrazole-4-carboxylic acid] | 5.31
4 | O=C(O)c1ccccc1NCCc1ccc(Cl)cc1 [2-[2-(4-chlorophenyl)ethylamino]benzoic acid] | 6.13
5 | CCOc1ccc(/C=C2\SC(N3CCc4ccccc4C3)=NC2=O)cc1 [(5Z)-2-(3,4-dihydro-1H-isoquinolin-2-yl)-5-(4-ethoxybenzylidene)-2-thiazolin-4-one] | 4.45
6 | OC(CNCCc1c[nH]c2ccccc12)Cn1c2ccc(Cl)cc2c2cc(Cl)ccc21 (stereo not drawn) [1-(3,6-dichloro-9-carbazolyl)-3-[2-(3H-indol-3-yl)ethylamino]-2-propanol] | 4.58
7 | COc1ccc(C2CC(c3ccccc3)=NN2c2ccc(S(N)(=O)=O)cc2)cc1 (stereo not drawn) [4-[3-(4-methoxyphenyl)-5-phenyl-3,4-dihydropyrazol-2-yl]benzenesulfonamide] | 6.15
8 | O=C1C([N+](=O)[O-])=Cc2oc3c(c2C1/C=N/Cc1ccccc1)CCCC3 (stereo not drawn) [(1Z)-3-nitro-1-[[(phenylmethyl)amino]methylidene]-6,7,8,9-tetrahydrodibenzofuran-2-one] | 5.40
9 | CCCN1C(=O)/C(=C/C=C2\N(CC)c3ccccc3C2(C)C)SC1=S [(5Z)-5-[(2Z)-2-(1-ethyl-3,3-dimethyl-2-indolylidene)ethylidene]-3-propyl-2-sulfanylidene-4-thiazolidinone] | 5.27
10 | O=C(O)/C=C/c1cn(Cc2ccccc2)nc1-c1cccs1 [(E)-3-(1-benzyl-3-thiophen-2-ylpyrazol-4-yl)prop-2-enoic acid] | 5.44
11 | Cc1ccccc1NC(=O)C1CCCN1S(=O)(=O)c1cccc2cccnc12 (stereo not drawn) [MLS000119085] | 5.46
12 | N=C(N)NS(=O)(=O)c1ccc(NC(=S)NC(=O)c2ccc3c(c2)OCO3)cc1 [MLS000621545] | 6.13
13 | CCS(=O)(=O)N1N=C(c2cccc(NS(C)(=O)=O)c2)CC1c1ccc(C)cc1 (stereo not drawn) [MLS000680398] | 5.57
14 | Cc1ccc(C2=NN(S(=O)(=O)c3ccccc3)C(c3ccccc3O)C2)cc1 (stereo not drawn) [2-[2-(benzenesulfonyl)-5-(4-methylphenyl)-3,4-dihydropyrazol-3-yl]phenol] | 5.77
15 | COc1ccc(-c2cc(C#N)nc(N3CCNCC3)n2)cc1 [6-(4-Methoxy-phenyl)-2-piperazin-1-yl-pyrimidine-4-carbonitrile] | 4.51
16 | CC(C)C(NCc1c(Cl)cccc1Cl)C(=O)O (stereo not drawn) [2-[(2,6-dichlorobenzyl)amino]-3-methyl-butyric acid] | 5.27
17 | COCCn1c(=S)[nH]c2cc(C(=O)N3CCc4ccccc4C3)ccc2c1=O [SMR000310652] | 6.07
18 | COC(=O)c1c(-n2c(O)c3c(c2O)[C@]2(C(=O)Nc4c(C)cc(C)cc42)N2CCC[C@@H]32)sc(C)c1C [2-[(3S,3'aR,8'aS,8'bS)-5,7-dimethyl-1',2,3'-trioxo-2'-spiro[1H-indole-3,4'-3a,6,7,8,8a,8b-hexahydropyrrolo[3,4-a]pyrrolizine]yl]-4,5-dimethyl-3-thiophenecarboxylic acid methyl ester] | 5.70

Source: BindingDB's records for doi:10.7270/Q2T15221 (Nmmlsc, 2010)
